Read-outs that look alike come from different tables or passages of the source.
What was measured:
[1] = biological target: PARG in HeLa cell line (Homo sapiens (Human), UniProt Q86W56); assay: PARG cell assay (nuclear PAR chains after MMS, immunofluorescence); format: cell-based
Method: This method is based on the detection of endogenous levels of poly (ADP) ribose chains present in the nucleus of HeLa cell line using indirect immunofluorescence. MMS stimulation increases PAR chains for up to 25 mins. After that point, PARG is active and breaks down the PAR chains, until by one hour after stimulation no PAR chains are detectable. Inhibition of PARG maintains PAR chains.
Briefly, following compound treatment and treatment with the DNA damaging agent methylmethanesulfonate (MMS), the cell monolayer is fixed, then permeabilised and incubated with a mouse monoclonal antibody raised against multimers of poly(ADP) ribose. After an overnight incubation, excess antibody is removed by washing and an Alexafluor 488-linked secondary antibody which recognises the mouse monoclonal is added together with a nuclear stain (Hoechst 33342). Images of the cells are then captured and analysed on a High Content Screening platform and the total intensity of the nuclear fluorescent signal at […] is quantified.
HeLa cells, seeded in 384-well plates, at 4000/well in 30 μL RPMI 1640 media, supplemented with 10% FBS and 2 mM Glutamax, were incubated overnight at 37° C., 5% CO2.
The following day, cells were dosed in quadruplicate with compound (10 point dose response) and incubated for 1 h at 37° C., 5% CO2.
At the end of the 1 h dosing period, MMS was added to duplicates at a final concentration of 50 μg/mL, for a further hour.
Media was tipped off and the cells fixed with 50 μL ice-cold 95% MetOH/PBS for 15 mins at −20° C. Following a PBS wash, 50 μL PBS/0.1% Triton was added to the cells for 20 mins. Following another PBS wash, anti-PAR antibody (Calbiochem AM80) was diluted 1:4000 in a buffer (PBS+0.5% FBS+0.05% Tween20) and added to the cells and incubated overnight at 4° C.
The following day, cells were washed three times with PBS and then incubated for 1 hr with secondary antibody (Alexa Fluor® 488 goat anti mouse IgG (H+L)) diluted 1:1000 and Hoechst diluted 1:5000 in buffer (5% FBS in PBS+0.05% Tween20).
Cells were washed three times with PBS and the plate sealed with a light-proof seal.
Images of the cells were captured on a ThermoFisher Celllnsight and the mean total intensity of spots fluorescent at 485 nm in the nucleus was reported.

[2] = biological target: Human Full Length PARG (Homo sapiens (Human), UniProt Q86W56); assay: PARG in vitro enzyme assay (TR-FRET); format: biochemical; details: read-out: PARG_EC50_ENZYME
Method: PARG In vitro assays were conducted in a total volume of 15 ul in a standard 384 well format. 5 ul of Human Full Length PARG (Produced internally by Astra Zeneca), used at a final reaction concentration of […], was added to 5 ul of Ribosylated PARP substrate (also produced internally by Astra Zeneca) at final reaction concentration of 4.5 nM in assay buffer (50 mM Tris pH7.4, 0.1 mg/ml BSA, 3 mM EDTA, 0.4 mM EGTA, 1 mM DTT, 0.01% Tween 20, 50 mM KCl). The reaction was incubated at room temperature for 10 minutes and then 5 ul detection reagent was added. Detection Reagent consists of 42 nM MAb Anti-6HIS XL665 (CisBio: 61 HISXLB) and 2.25 nM Streptavidin Europium Cryptate (CisBio: 610SAKLB), both at 3× working stock concentrations (final concentrations of 14 nM and 0.75 nM respectively), in a detection buffer of 50 mM Tris pH7.4, BSA at 0.1 mg/ml and KF at 100 mM. Following incubation at room temperature for 60 minutes in the dark, TR-FRET signal was measured at Ex 340 and Em 665 and Em 620. A ratio was calculated as Em665/EM620×104 for each well and used to calculate percent inhibition for test compounds.

[3] = HeLa cells, MMS 50 μg/mL, read-out: PARG Cell IC50 Geomean

Human Full Length PARG, sequence (Q86W56 whole entry): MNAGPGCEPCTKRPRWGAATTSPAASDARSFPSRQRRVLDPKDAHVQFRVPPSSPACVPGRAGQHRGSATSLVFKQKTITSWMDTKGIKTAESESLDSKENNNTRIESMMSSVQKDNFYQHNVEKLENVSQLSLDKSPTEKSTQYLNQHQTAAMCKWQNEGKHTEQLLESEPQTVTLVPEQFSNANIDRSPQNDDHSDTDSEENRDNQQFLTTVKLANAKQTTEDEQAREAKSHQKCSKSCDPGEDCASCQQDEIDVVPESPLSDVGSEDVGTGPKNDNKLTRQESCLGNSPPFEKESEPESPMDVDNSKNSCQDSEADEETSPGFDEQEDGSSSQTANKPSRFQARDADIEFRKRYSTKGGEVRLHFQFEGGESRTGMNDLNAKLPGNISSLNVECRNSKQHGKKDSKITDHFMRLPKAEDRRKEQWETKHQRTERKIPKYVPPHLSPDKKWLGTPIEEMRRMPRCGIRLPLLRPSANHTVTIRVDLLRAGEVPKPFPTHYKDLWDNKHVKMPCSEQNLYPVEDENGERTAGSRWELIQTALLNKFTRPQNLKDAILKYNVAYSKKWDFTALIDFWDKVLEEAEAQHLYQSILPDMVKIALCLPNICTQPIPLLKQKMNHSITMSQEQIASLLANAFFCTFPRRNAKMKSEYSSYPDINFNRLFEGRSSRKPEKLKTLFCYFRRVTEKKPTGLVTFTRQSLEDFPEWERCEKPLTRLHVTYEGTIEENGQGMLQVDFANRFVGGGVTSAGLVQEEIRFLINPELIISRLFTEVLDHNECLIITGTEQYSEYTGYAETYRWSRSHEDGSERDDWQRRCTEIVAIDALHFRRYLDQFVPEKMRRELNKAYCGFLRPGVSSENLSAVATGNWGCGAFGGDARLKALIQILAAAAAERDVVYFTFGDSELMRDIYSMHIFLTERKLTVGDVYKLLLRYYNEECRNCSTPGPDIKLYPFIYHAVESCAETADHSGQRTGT
PARG in HeLa cell line, sequence (Q86W56 whole entry): as above

| Structure (SMILES) | IC50 [1, 3] [µM] | EC50 [2] [µM] | IC50 [1] [µM] |
| --- | --- | --- | --- |
| Cc1cc(Cn2c(=O)n(-c3nnc(C)s3)c3cc(S(=O)(=O)NC4(C)CC4)ccc32)n(C)n1 [Example 84] | 0.271 | 0.359 | – |
| COc1ccc(Cn2c(=O)n(-c3nnc(C)s3)c3cc(S(=O)(=O)NC4(C)CC4)ccc32)cc1 [Example 86] | 0.277 | 0.403 | – |
| Cn1c(=O)n(-c2ncns2)c2cc(S(=O)(=O)NC3(C)CC3)ccc21 [Example 98] | 0.694 | 0.359 | – |
| Cc1nnc(-n2c(=O)n(Cc3sc(C)nc3C)c3ccc(S(=O)(=O)NC4(C)CC4)cc32)o1 [Example 99] | 0.342 | 0.202 | – |
| C#CCn1c(=O)n(-c2nnc(C)s2)c2cc(S(=O)(=O)NC3(C)CC3)ccc21 [Example 100] | 0.194 | 0.265 | – |
| Cc1nnc(-n2c(=O)n(Cc3ncco3)c3ccc(S(=O)(=O)NC4(C)CC4)cc32)s1 [Example 101] | 0.39 | 0.246 | – |
| Cc1ccc(Cn2c(=O)n(-c3nnc(C)s3)c3cc(S(=O)(=O)NC4(C)CC4)ccc32)o1 [Example 103] | 0.221 | 0.284 | – |
| Cc1ccc(Cn2c(=O)n(-c3nnc(C)s3)c3cc(S(=O)(=O)NC4(C)CC4)ccc32)s1 [Example 104] | 0.245 | 0.28 | – |
| COc1nsc(-n2c(=O)n(Cc3sc(C)nc3C)c3ccc(S(=O)(=O)NC4(C)CC4)cc32)n1 [Example 105] | 0.246 | 0.269 | – |
| Cc1cnc(-n2c(=O)n(Cc3sc(C)nc3C)c3ccc(S(=O)(=O)NC4(C)CC4)cc32)s1 [Example 107] | 0.159 | 0.086 | – |
| Cc1nc(C)c(Cn2c(=O)n(-c3nc(Br)ns3)c3cc(S(=O)(=O)NC4(C)CC4)ccc32)s1 [Example 108] | 0.067 | 0.069 | – |
| Cc1nc(C)c(Cn2c(=O)n(-c3nccs3)c3cc(S(=O)(=O)NC4(C)CC4)ccc32)s1 [Example 111] | 0.507 | 0.147 | – |
| CCOC(=O)n1c(=O)n(Cc2sc(C)nc2C)c2ccc(S(=O)(=O)NC3(C)CC3)cc21 [Example 112] | 0.85 | 0.14 | – |
| Cc1nnc(-n2c(=O)n(C)c3cc(F)c(S(=O)(=O)NC4(C)CC4)cc32)s1 [Example 116, 6-Fluoro-1-methyl-N-(1-methylcyclopropyl)-3-(5-methyl-1,3,4-thiadiazol-2-yl)-2-oxo-benzimidazole-5-sulfonamide] | 0.197 | 0.245 | – |
| CNC(=O)c1noc(Cn2c(=O)n(-c3nnc(C)o3)c3cc(S(=O)(=O)NC4(C)CC4)ccc32)n1 [Example 117] | 24.7 | 0.275 | – |
| Cc1nnc(-n2cc(CC3CC3)c3ccc(S(=O)(=O)NC4(C)CC4)cc32)s1 [Example 128, 3-(Cyclopropylmethyl)-N-(1-methylcyclopropyl)-1-(5-methyl-1,3,4-thiadiazol-2-yl)indole-6-sulfonamide] | – | 2.11 | – |
| Cc1nnc(-n2cc(C(=O)C3CC3)c3ccc(S(=O)(=O)NC4(C)CC4)cc32)s1 [Example 130, 3-(Cyclopropanecarbonyl)-N-(1-methylcyclopropyl)-1-(5-methyl-1,3,4-thiadiazol-2-yl) indole-6-sulfonamide] | 0.135 | 0.218 | – |
| Cc1nnc(-n2cc(C(=O)c3ccc(F)cc3)c3ccc(S(=O)(=O)NC4(C)CC4)cc32)s1 [Example 131, 3-(4-Fluorobenzoyl)-N-(1-methylcyclopropyl)-1-(5-methyl-1,3,4-thiadiazol-2-yl)indole-6-sulfonamide] | – | 0.261 | 0.228 |
| CCOC(=O)n1cc(Cc2sc(C)nc2C)c2ccc(S(=O)(=O)NC3(C)CC3)cc21 [Example 132, Ethyl 3-[(2,4-dimethylthiazol-5-yl)methyl]-6-[(1-methylcyclopropyl)sulfamoyl]indole-1-carboxylate] | – | 7.42 | – |
| Cc1nnc(-n2c(=O)n(CCCN(C)C)c3ccc(S(=O)(=O)NC4(C)CC4)cc32)o1 [Example 133] | – | 1.14 | – |
| COCCn1c(=O)n(-c2nnc(C)o2)c2cc(S(=O)(=O)NC3(C)CC3)ccc21 [Example 134] | – | 0.91 | – |
| Cc1nnc(-n2c(=O)n(CCCN(C)C)c3ccc(S(=O)(=O)NC4(C)CC4)cc32)s1 [Example 135] | 0.371 | 0.512 | – |

| Structure (SMILES) | IC50 [1, 3] [µM] | EC50 [2] [µM] | IC50 [1] [µM] |
| --- | --- | --- | --- |
| Cc1nnc(-n2c(=O)n(CC3CCCN(C)C3)c3ccc(S(=O)(=O)NC4(C)CC4)cc32)s1 (stereo not drawn) [Example 136] | – | 0.567 | – |
| Cc1nnc(-n2c(=O)n(CCN(C)C)c3ccc(S(=O)(=O)NC4(C)CC4)cc32)o1 [Example 137] | – | 2.28 | – |
| Cc1nnc(-n2c(=O)n(CC3CCCCN3C)c3ccc(S(=O)(=O)NC4(C)CC4)cc32)o1 (stereo not drawn) [Example 138] | – | 1.02 | – |
| Cc1nnc(-n2c(=O)n(CC3CCCN(C)C3)c3ccc(S(=O)(=O)NC4(C)CC4)cc32)o1 (stereo not drawn) [Example 139] | – | 1.15 | – |
| Cc1nnc(-n2c(=O)n(CCN3CCCCC3)c3ccc(S(=O)(=O)NC4(C)CC4)cc32)o1 [Example 140] | – | 1.97 | – |
| Cc1nnc(-n2c(=O)n(CCN3CCOCC3)c3ccc(S(=O)(=O)NC4(C)CC4)cc32)o1 [Example 141] | – | 1.12 | – |
| Cc1nnc(-n2c(=O)n(CCN3CCCC3)c3ccc(S(=O)(=O)NC4(C)CC4)cc32)o1 [Example 142] | – | 3.8 | – |
| Cc1nnc(-n2c(=O)n(CC3CCCCN3C)c3ccc(S(=O)(=O)NC4(C)CC4)cc32)s1 (stereo not drawn) [Example 143] | 0.343 | 0.441 | – |
| CC(=O)c1cn(-c2nnc(C)s2)c2cc(S(=O)(=O)NC3(C)CC3)ccc12 [Example 144, 3-Acetyl-N-(1-methylcyclopropyl)-1-(5-methyl-1,3,4-thiadiazol-2-yl)indole-6-sulfonamide] | – | 0.595 | – |
| COCCn1c(=O)n(-c2nnc(C)s2)c2cc(S(=O)(=O)NC3(C)CC3)ccc21 [Example 147] | 0.437 | 0.461 | – |
| COCCCn1c(=O)n(-c2nnc(C)s2)c2cc(S(=O)(=O)NC3(C)CC3)ccc21 [Example 148] | 0.238 | 0.373 | – |
| Cc1nnc(-n2c(=O)n(CCN3CCCCC3)c3ccc(S(=O)(=O)NC4(C)CC4)cc32)s1 [Example 149] | – | 0.735 | – |
| COCCCn1c(=O)n(-c2nnc(C)o2)c2cc(S(=O)(=O)NC3(C)CC3)ccc21 [Example 150] | – | 0.904 | – |
| Cc1nnc(-n2c(=O)n(CCC(N)=O)c3ccc(S(=O)(=O)NC4(C)CC4)cc32)o1 [Example 151] | – | 1.16 | – |
| Cc1nnc(-n2c(=O)n(CCN3CCOCC3)c3ccc(S(=O)(=O)NC4(C)CC4)cc32)s1 [Example 152] | 0.194 | 0.275 | – |
| Cc1nnc(-n2c(=O)n(CCN3CCCC3)c3ccc(S(=O)(=O)NC4(C)CC4)cc32)s1 [Example 153] | – | 1.12 | – |
| Cc1nnc(-n2c(=O)n(CCC(N)=O)c3ccc(S(=O)(=O)NC4(C)CC4)cc32)s1 [Example 154] | 9.08 | 0.614 | – |
| Cc1nnc(-n2c(=O)n(CC3CCCN3C)c3ccc(S(=O)(=O)NC4(C)CC4)cc32)s1 (stereo not drawn) [Example 155] | 0.166 | 0.464 | – |
| Cc1nnc(-n2c(=O)n(C)c3ccc(S(=O)(=O)NC4(CF)CC4)cc32)s1 [Example 156, N-[1-(Fluoromethyl)cyclopropyl]-1-methyl-3-(5-methyl-1,3,4-thiadiazol-2-yl)-2-oxo-benzimidazole-5-sulfonamide] | 0.589 | 0.686 | – |
| Cc1nnc(-n2c(=O)[nH]c3ccc(S(=O)(=O)NC4(C#N)CC4)cc32)s1 [Example 157, N-(1-Cyanocyclopropyl)-3-(5-methyl-1,3,4-thiadiazol-2-yl)-2-oxo-1H-benzimidazole-5-sulfonamide] | 3.5 | 1.17 | – |
| Cc1nsc(-n2c(=O)n(C)c3ccc(S(=O)(=O)NC4(CF)CC4)cc32)n1 [Example 177] | 2.54 | – | – |

Reference: patent US10508086B2 (CANCER RESEARCH TECHNOLOGY LIMITED, priority 2014, dated 2019)
